For assay [1], the target named is T1, cloned human μ opioid receptor (Homo sapiens, UniProt P35372).
T1 construct: expressed in transfected cells
The assay can be described thus: [3H]diprenorphine receptor binding, μ opioid receptor. The following applies: [3H]diprenorphine displacement; read-out: affinity (expressed as Ki value), μ opioid receptor. Here is the method: (§1) The potencies of the compounds were determined by testing the ability of a range of concentrations of each compound to inhibit the binding of the non-selective opioid antagonist, [^3H]diprenorphine, to the cloned human μ, κ, and δ opioid receptors, expressed in separate cell lines. IC50 values were obtained by nonlinear analysis of the data using GraphPad Prism version 3.00 for Windows (GraphPad Software, San Diego). Ki values were obtained by Cheng-Prusoff corrections of IC50 values.
(§2) The receptor binding method (DeHaven and DeHaven-Hudkins, 1998) was a modification of the method of Raynor et al. (1994). […] The filters were rinsed 4 times with 1 mL of cold 50 mM Tris HCl, pH 7.8 and radioactivity remaining on the filters determined by scintillation spectroscopy. Nonspecific binding was determined by the minimum values of the titration curves and was confirmed by separate assay wells containing 10 μM naloxone. Ki values were determined by Cheng-Prusoff corrections of IC50 values derived from nonlinear regression fits of 12 point titration curves using GraphPad Prism® version 3.00 for Windows (GraphPad Software, San Diego, Calif.).
(§3) To determine the equilibrium dissociation constant for the inhibitors (Ki), radioligand bound (cpm) in the presence of various concentrations of test compounds was measured. […]

Assay [2] concerns the target T2, cloned human δ opioid receptor (Homo sapiens, UniProt P41143).
T2 construct: expressed in transfected cells
The assay can be described thus: [3H]diprenorphine receptor binding, δ opioid receptor. The conditions noted are these: [3H]diprenorphine displacement; read-out: affinity (expressed as Ki value), δ opioid receptor. On the procedure: as §1, §2, §3

The target of assay [3] is T3, cloned human κ opioid receptor (Homo sapiens, UniProt P41145).
T3 construct: expressed in transfected cells
T3 sequence (P41145 whole entry): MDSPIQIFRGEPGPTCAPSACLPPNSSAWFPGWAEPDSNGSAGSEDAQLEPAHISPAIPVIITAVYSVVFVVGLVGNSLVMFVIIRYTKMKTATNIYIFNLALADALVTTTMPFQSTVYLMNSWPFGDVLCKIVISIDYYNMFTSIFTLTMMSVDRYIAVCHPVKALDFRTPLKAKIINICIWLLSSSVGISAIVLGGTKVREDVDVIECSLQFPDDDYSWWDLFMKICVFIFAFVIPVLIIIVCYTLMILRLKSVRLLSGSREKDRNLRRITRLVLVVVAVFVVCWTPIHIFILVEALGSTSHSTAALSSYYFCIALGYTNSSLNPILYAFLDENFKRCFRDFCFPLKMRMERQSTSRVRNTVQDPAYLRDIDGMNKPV
Briefly: [3H]diprenorphine receptor binding, κ opioid receptor. The following applies: [3H]diprenorphine displacement; read-out: affinity (expressed as Ki value), κ opioid receptor. Here is the method: as §1, §2, §3

Assay [4] addresses T1, cloned human μ opioid receptor. Briefly: inhibition of agonist (loperamide)-stimulated [35S]GTPγS binding. The following applies: receptor not given; mu opioid receptor from context; read-out: in vitro antagonist activity (IC50). In kind it is biochemical. Here is the method:
The potencies of the antagonists were assessed by their abilities to inhibit agonist-stimulated [^35S]GTPγS binding to membranes containing the cloned human μ, κ, or δ opioid receptors. The agonists used were loperamide for the μ opioid receptor, U50488H for the κ opioid receptor, and BW373U86 for the δ opioid receptor.
To determine the IC50 value, which was the concentration to give half-maximal inhibition of agonist-stimulated [^35S]GTPγS binding, the amount of [^35S]GTPγS bound in the presence of a fixed concentration of agonist and various concentrations of antagonist was measured. The fixed concentration of agonist was the EC80 for the agonist, which was the concentration to give 80% of the relative maximum stimulation of [^35S]GTPγS binding. The IC50 value was determined from a best nonlinear regression fit of the data to the following equation,
where Y is the amount of [^35S]GTPγS bound at each concentration of antagonist, Bottom is the calculated amount of [^35S]GTPγS bound in the presence of an infinite concentration of antagonist, Top is the calculated amount of [^35S]GTPγS bound in the absence of added antagonist, X is the logarithm of the concentration of antagonist, and Log IC50 is the logarithm of the concentration of antagonist where the amount of [^35S]GTPγS bound is halfway between Bottom and Top. […]
A general note: GTPγS resists hydrolysis and so accumulates on activated G proteins.

Assay [5] relates to Mouse Gastrointestinal Transit (GIT). Briefly: Mouse Gastrointestinal Transit (GIT) Assay. The format is in vivo. The following applies: 10 mg/kg p.o., morphine 3 mg/kg s.c. On the procedure: Male Swiss-Webster mice (25-30 g) obtained from Ace Animals (Boyertown, Pa.) were used for all experiments. Mice were housed 4/cage in polycarbonate cages with food and water available ad libitum. Mice were on a 12 hours light:dark schedule with lights on at 6:30 a.m. All experiments were performed during the light cycle. Mice were fasted the night before the experiment, with water available ad libitum.
Mice were administered vehicle (10% DMSO:20% Cremophor EL:70% saline) or test compound (10 mg/kg) orally 2 or 6 hours before determination of GIT. Compounds were administered in a volume of 0.1 ml/10 g of body weight. Morphine (3 mg/kg) or vehicle (0.9% saline) was administered s.c. 35 min prior to determination of GIT. Ten minutes after the morphine treatment, mice were administered 0.2 ml of a charcoal meal orally. The charcoal meal consisted of a slurry of charcoal, flour, and water in the following ratio (1:2:8, w:w:v). Twenty-five minutes after receiving the charcoal meal, the mice were euthanized with CO2 and GIT determined.
GIT is expressed as the % GIT by the following formula:
[formula] For each compound a % Antagonism (% A) value was determined for the 2 and 6 hr antagonist pretreatment. Using the mean % GIT for each treatment group, % A was calculated using the following formula: […]

T1 sequence (P35372 whole entry): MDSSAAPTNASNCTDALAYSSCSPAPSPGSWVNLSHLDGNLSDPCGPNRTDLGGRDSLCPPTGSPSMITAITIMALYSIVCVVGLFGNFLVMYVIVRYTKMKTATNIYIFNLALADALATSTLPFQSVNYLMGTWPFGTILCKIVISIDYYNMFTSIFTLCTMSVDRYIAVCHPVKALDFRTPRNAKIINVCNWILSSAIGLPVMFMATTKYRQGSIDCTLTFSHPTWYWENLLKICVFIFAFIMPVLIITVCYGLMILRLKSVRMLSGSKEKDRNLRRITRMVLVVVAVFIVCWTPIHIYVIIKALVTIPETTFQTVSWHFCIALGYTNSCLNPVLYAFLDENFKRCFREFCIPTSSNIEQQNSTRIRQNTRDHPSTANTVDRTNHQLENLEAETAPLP
T2 sequence (P41143 whole entry): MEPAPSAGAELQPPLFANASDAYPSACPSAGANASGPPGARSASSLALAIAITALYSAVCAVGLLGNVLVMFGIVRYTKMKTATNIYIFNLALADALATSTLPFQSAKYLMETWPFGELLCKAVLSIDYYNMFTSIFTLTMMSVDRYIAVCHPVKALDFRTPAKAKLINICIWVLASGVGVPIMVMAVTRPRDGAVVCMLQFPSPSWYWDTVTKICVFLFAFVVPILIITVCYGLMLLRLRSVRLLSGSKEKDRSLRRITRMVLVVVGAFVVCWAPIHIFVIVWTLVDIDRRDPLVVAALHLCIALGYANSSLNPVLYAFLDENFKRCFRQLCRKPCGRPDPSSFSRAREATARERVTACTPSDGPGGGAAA

For `C[C@H]1CN(C[C@H](Cc2ccccc2)C(=O)NCC(=O)O)CC[C@@]1(C)c1cccc(C(N)=O)c1` [Example 58, [[2(R)-[[4(R)-(3-amidophenyl)-3(R),4-dimethyl-1-piperidinyl]methyl]-1-oxo-3-phenylpropyl]amino]acetic Acid], the Ki (usually the equilibrium dissociation constant of an inhibitor or competing ligand from its target) in assay [1] was 2.6 nM; in assay [2], 85 nM; in assay [3], 1080 nM. Besides, the IC50 – broadly, the midpoint of a concentration-inhibition curve – in assay [4] was determined as 3 nM. In addition, the “% antagonism” value in assay [5] (2 h pretreatment) turned out to be 92%; in assay [5] (6 h pretreatment), 61%.

On to `C[C@H]1CN(CC(Cc2ccccc2)C(=O)NCC(=O)O)CC[C@@]1(C)c1cccc(C(=O)O)c1` (stereo in doubt) [Example 28, [[2(R)-[[4(R)-(3-carboxyphenyl)-3(R),4-dimethyl-1-piperidin-yl]methyl]-1-oxo-3-phenylpropyl]amino]acetic Acid], for which the values for the inhibition constant Ki in assay [1] and in assay [2] were 19 nM and 1330 nM, respectively. Moreover, the half-inhibitory concentration (IC50) in assay [4] amounted to 3.4 nM. In addition, the results for the “% antagonism” value in assay [5] (2 h pretreatment) and in assay [5] (6 h pretreatment) were 86% and 71%, respectively.

The values above are taken from patent US8404693B2, “Substituted piperidine compounds and methods of their use” (Adolor Corporation, priority 2003, dated 2013).
